Test results reported in patent US11730714B2, “Compounds for the treatment of neuromuscular disorders” (NMD PHARMA A/S, priority 2017, dated 2023).

What follows are compounds tested on isolated rat soleus muscles (assay: Recovery of nerve-stimulated force in isolated rat soleus muscles exposed to sub-maximal tubocurarine). Details: not given.
Format: cell-based
Procedure: Experiments were performed using rat soleus muscles from either young (4-wk-old) or adult Wistar rats (12-14-week-old). Animal handling, killing and isolation of muscle is described elsewhere All experiments were performed using normal Krebs-Ringer bicarbonate solution (NKR). In solutions with elevated Mg^2+, MgCl2 was added to NKR-solution causing minor increases in osmolarity and ionic strength. In solutions with elevated K^+, 4 mM NaCl was replaced by 4 mM KCl in the NKR.
In all contraction experiments, isometric force production was determined and force produced during contractions was quantified by measuring the integral of the force response (AUC). Stimulation and force recordings have been described elsewhere. […] In these latter experiments, extracellular recordings of action potentials (M-waves) could be measured without temporal overlap with stimulation artefacts.
The aim was to find compounds that by inhibition of CIC-1 channels can recover nerve-stimulated force under conditions of fatigue including conditions where fatigue is caused by compromised neuromuscular transmission. Neuromuscular transmission dysfunction can develop because of both pre- and/or post-synaptic complications in connection with a disorder or as part of neuromuscular blockade during/after surgery. In the initial series of drug testing, experiments were performed with isolated muscles in the presence of sub-maximal ACh receptor antagonist tubocurarine. Since the inclusion of tubocurarine caused a partial loss of neuromuscular transmission this experiment mimics the conditions in myasthenia gravis and neuromuscular blockade. To mimic conditions with pre-synaptic complication (Lambert Eaton syndrome, motor neuron disorder, polyneuropathy) the intact nerve-muscle preparations were incubated at elevated extracellular Mg^2+, which is known to suppress release of ACh from nerve terminals of motor neurons.
The experiments also illustrate that field stimulation of the entire nerve-muscle preparation selectively activates the motor nerve when short-duration pulses (0.02 vs 0.2 ms) were used. In FIG. 1A the preparation was stimulated either via field stimulation or via nerve-stimulation using a suction electrode. With the suction electrode only the nerve could be stimulated. When exposed to a submaximal concentration of the ACh receptor antagonist tubocurarine (0.2 μM) a clear drop in peak force and a further decline (or fade) in force during the stimulation developed. This drop in force clearly reflected compromised neuromuscular transmission, as the decline in peak force and fading were not seen with direct stimulation of the muscle. […] Thus, loss of M-wave and force with tubocurarine reflected partial blockade of neuromuscular function. Such fading of force and M-waves during stimulation represent clinical hallmarks of both myasthenia gravis and neuromuscular blockade in connection with surgery. In FIG. 1B, observations with normal (0.2 ms) and short-duration (0.02 ms) pulses have been compared. It can be seen that only with short-duration pulses did tubocurarine cause a decline in peak force and fading (FIG. 1B). This confirms that short-duration pulses in field stimulation could be used as specific nerve-stimulation. […] Elevated extracellular Mg^2+ could thus be used to partially block neuromuscular transmission and thus be used as a model of conditions with compromised pre-synaptic function (Lambert Eaton syndrome, amyotrophic lateral sclerosis, spinal muscular atrophy). […]

Structure (SMILES)	50 μM % change after addition (AUC of nerve-stimulated force)	150 μM % change after addition (AUC of nerve-stimulated force)
CC(Oc1ccc(Cl)cc1)C(=O)Oc1ccc(Cl)cc1 (centres unmarked) [Compound C11, 4-chlorophenyl 2-(4-chlorophenoxy)propanoate]	46%	54%

What follows are compounds tested against T1, CIC-1 channels (Rattus norvegicus, UniProt P35524) (assay: Electrophysiological measurement of compound inhibition of CIC-1 in rat muscle (Gm, EC50)). Details: rat soleus muscle fibres, three micro-electrode Gm measurement; read-out: EC50 (inhibition of ClC-1 ion channel, Gm).
T1 construct: Gm was measured in individual fibres of whole rat soleus muscles; from tissue; host or cells: soleus muscle of adult (12-14 week old) Wistar rats
T1 sequence (P35524 1-994): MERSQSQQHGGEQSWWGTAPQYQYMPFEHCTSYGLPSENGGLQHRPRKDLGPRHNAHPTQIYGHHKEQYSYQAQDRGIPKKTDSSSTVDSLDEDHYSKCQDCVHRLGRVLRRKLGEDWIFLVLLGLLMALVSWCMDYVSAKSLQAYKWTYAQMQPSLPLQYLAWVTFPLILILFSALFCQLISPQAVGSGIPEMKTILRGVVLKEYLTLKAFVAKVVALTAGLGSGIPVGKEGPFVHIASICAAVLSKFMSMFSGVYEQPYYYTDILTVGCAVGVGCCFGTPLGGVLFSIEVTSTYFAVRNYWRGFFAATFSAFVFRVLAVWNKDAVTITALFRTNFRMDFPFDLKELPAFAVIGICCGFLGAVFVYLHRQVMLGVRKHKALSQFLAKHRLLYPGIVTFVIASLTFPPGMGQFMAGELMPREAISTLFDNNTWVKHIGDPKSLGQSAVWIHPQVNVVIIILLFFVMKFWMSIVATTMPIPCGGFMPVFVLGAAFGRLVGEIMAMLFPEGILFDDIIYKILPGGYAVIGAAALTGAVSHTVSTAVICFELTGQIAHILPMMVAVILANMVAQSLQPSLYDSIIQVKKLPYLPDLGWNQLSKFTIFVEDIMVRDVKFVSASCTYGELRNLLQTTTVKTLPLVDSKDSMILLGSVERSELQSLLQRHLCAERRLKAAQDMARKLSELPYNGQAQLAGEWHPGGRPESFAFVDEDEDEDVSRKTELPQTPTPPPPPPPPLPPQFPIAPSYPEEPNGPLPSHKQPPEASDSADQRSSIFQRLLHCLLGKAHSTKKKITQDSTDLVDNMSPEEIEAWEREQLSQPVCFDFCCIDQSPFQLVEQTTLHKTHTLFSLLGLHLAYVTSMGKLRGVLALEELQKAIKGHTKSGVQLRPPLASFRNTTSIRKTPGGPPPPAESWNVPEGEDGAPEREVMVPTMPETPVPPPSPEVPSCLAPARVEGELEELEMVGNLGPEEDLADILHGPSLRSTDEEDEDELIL
Format: cell-based

Structure (SMILES)	EC50
[2H]CC([2H])[C@H](Oc1ccc(Br)cc1)C(=O)O (stereo partly drawn) [Compound A-76, (2S)-2-(4-bromophenoxy)(3,4-^2H2)butanoic acid]	3.8 ± 2.1 µM
[2H][C@@](CF)(Oc1ccc(Br)cc1)C(=O)O [Compound A-82, (2R)-2-(4-bromophenoxy)-3-fluoro(2-^2H)propanoic acid]	5.2 ± 1.3 µM

Same assay, conditions: rat soleus muscle fibres; sigmoidal fit of average Gm; read-out: EC50 (inhibition of CIC-1, reduction of Gm)

Structure (SMILES)	EC50
CC(C)[C@@H](Oc1ccc(Br)cc1F)C(=O)O [Compound A-4, (2R)-2-(4-bromo-2-fluoraphenoxy)-3-methylbutanoic acid]	> 80 µM

Each compound was assayed against T2, human CIC-1 channels (Homo sapiens, UniProt P35523) (assay: Automated patch-clamp on human CIC-1 expressed in CHO cells (shift in half activation voltage V1/2)). Details: compound in intracellular solution vs vehicle control patches; CHO cells expressing human ClC-1.
T2 construct: host or cells: CHO (Chinese hamster ovary) cells, cryopreserved, used directly after thawing
Format: cell-based
Procedure: FIG. 13A-13B: FIG. 13A illustrates the voltage protocol used to evoke currents in whole cell patches of CHO cells expressing human CIC-1 channels.
The investigatory goal of these experiments was to evaluate how compounds affect the open probability and current amplitude of human CIC-1 channels expressed in CHO cells. Experiments were performed using an automated patch clamp system that allowed high throughput testing of whole cell patches together with both intracellular and extracellular addition of compound.
Automated whole cell patch clamp experiments were performed with the Qpatch 16 system (Sophion Bioscience, Ballerup, Denmark) at room temperature. Data acquisition and analysis were performed in the Qassay software (ver. 5.6, Odense).
To obtain tail currents, the membrane potential was stepped to −100 mV after each test voltage for 300 ms and then relaxed to −30 mV for 2 sec between sweeps (FIG. 3). I/V relationships for whole cell instant and steady state current amplitudes were obtained by plotting average current densities at the beginning and at the end of the 300 ms step against the membrane potential (FIG. 4).
In order to determine the relative overall open probability (Po), the instantaneous tail currents were normalized to the maximal tail current obtained following the most positive voltage step and plotted against the test voltage. Plots of normalized tail currents from each whole cell patch were then fitted to a Boltzmann function allowing determination of half activation voltages (V1/2, FIG. 5).
Osmolality adjusted to […] using sucrose.
Intracellular solutions contained: 80 mM […], 60 mM CsCl, 5/1 mM KOH/EGTA, 10 mM HEPES, 10 mM NaCl, pH adjusted to 7.2 with NaOH (2 M). Osmolality adjusted to ˜320 mOsm using sucrose.
Cells used in patch clamp experiments were Chinese hamster ovary cells (CHO) constitutively expressing human CIC-1 channels. The amino acid sequence encoded by the cDNA used to create this cell line was identical to the translated sequence for GenBank accession number NM_000083.2. Cells were produced by Charles River (Catalogue CT6175, Cleveland Ohio, USA) in a cryopreserved format. Experiments were performed on the cells directly after thawing (3×10^6 cells used in each experiment).
To evaluate the compound effect on CIC-1, when applied directly to the intracellular side of the cell membrane, the half activation voltage, V1/2, was determined from whole cell patches with compound added to the intracellular solution and then compared to V1/2 determined from control cell patches with only vehicle added to the intracellular solution. Additionally, the effect of extracellular added compound was evaluated by determine V1/2 and steady state current amplitudes before and after exchanging the extracellular solution to contain compound.
The difference in half activation voltage of CIC-1 channels, […]V1/2, was determined as the difference between the cell patches treated intracellularly with compound and control cells patches and is reported in Table 4 below. A positive shift in […]V1/2 is reflecting CIC-1 channel inhibition by the tested compound. P-values of <0.05 is considered significant.

T2 sequence (P35523 whole entry): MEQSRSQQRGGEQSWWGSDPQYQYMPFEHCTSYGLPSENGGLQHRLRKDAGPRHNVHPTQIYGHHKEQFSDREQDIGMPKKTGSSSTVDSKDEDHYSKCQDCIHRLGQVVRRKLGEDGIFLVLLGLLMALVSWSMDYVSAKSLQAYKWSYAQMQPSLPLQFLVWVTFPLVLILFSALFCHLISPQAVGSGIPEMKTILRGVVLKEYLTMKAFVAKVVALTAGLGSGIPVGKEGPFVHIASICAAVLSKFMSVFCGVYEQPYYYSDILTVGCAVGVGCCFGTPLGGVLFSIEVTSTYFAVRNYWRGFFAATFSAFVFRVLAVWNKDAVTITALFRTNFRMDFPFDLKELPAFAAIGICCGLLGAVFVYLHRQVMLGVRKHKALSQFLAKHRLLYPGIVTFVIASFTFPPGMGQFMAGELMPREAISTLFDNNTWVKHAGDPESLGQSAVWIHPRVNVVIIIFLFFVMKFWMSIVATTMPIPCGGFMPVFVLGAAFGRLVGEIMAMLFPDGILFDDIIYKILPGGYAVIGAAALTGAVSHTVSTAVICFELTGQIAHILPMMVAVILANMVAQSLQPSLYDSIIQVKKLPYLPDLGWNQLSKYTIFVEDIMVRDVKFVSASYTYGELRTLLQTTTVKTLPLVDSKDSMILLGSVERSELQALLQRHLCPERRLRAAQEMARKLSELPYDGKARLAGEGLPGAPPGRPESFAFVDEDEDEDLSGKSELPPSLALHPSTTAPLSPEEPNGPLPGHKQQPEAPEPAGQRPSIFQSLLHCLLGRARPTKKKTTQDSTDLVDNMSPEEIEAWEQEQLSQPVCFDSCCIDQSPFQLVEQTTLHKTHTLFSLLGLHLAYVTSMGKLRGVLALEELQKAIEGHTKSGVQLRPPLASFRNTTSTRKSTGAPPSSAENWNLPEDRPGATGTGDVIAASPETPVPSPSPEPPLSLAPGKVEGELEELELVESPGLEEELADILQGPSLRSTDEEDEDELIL

Structure (SMILES)	ΔV½ (difference in half activation voltage of ClC-1)
[2H]c1cc(Br)cc([2H])c1O[C@@H](C)C(=O)O [Compound A-6, (2S)-2-[4-bromo(2,6-^2H2)phenoxy]propanoic acid]	13.0 mV
C[C@H](Oc1ccc(Br)cc1I)C(=O)O [Compound A-8, (2S)-2-(4-bromo-2-iodophenoxy)propanoic acid]	9.4 mV
O=C(O)[C@@H](Oc1ccc(Br)cc1F)C(F)F [Compound A-9, (2R)-2-(4-bromo-2-fluorophenoxy)-3,3-difluoropropanoic acid]	15.2 mV
O=C(O)[C@H](CF)Oc1ccc(Br)cc1 [Compound A-26, (2R)-2-(4-bromophenoxy)-3-fluoropropanoic acid]	19.7 mV
CC(C)[C@H](Oc1ccc(Br)cc1F)C(=O)O [Compound A-27, (2S)-2-(4-bromo-2-fluorophenoxy)-3-methylbutanoic acid]	20.2 mV
C[C@H](Oc1ccc(Cl)cc1F)C(=O)O [Compound A-38, (2S)-2-(4-chloro-2-fluorophenoxy)propanoic acid]	17.4 mV
C[C@H](Oc1ccc(Br)cc1Br)C(=O)O [Compound A-40, (2S)-2-(2,4-dibromophenoxy)propanoic acid]	5.19 mV
CC[C@H](Oc1ccc(Br)cc1F)C(=O)O [Compound A-58, (2S)-2-(4-bromo-2-fluorophenoxy)butanoic acid]	28.2 mV
C#CC[C@H](Oc1ccc(Br)cc1Br)C(=O)O [Compound A-66, (2S)-2-(2,4-dibromophenoxy)pent-4-ynoic acid]	27.4 mV
C#CC[C@H](Oc1ccc(Br)cc1Cl)C(=O)O [Compound A-67, (2S)-2-(4-bromo-2-chlorophenoxy)pent-4-ynoic acid]	37.8 mV
C#CC[C@H](Oc1ccc(Br)cc1F)C(=O)O [Compound A-69, (2S)-2-(4-bromo-2-fluorophenoxy)pent-4-ynoic acid]	32.6 mV
COC[C@H](Oc1ccc(Br)cc1Br)C(=O)O [Compound A-74, (2S)-2-(2,4-dibromophenoxy)-3-methoxypropanoic acid]	10.4 mV
[2H]CC([2H])[C@H](Oc1ccc(Br)cc1)C(=O)O (stereo partly drawn) [Compound A-76, (2S)-2-(4-bromophenoxy)(3,4-^2H2)butanoic acid]	26.2 mV
[2H][C@@](CF)(Oc1ccc(Br)cc1)C(=O)O [Compound A-82, (2R)-2-(4-bromophenoxy)-3-fluoro(2-^2H)propanoic acid]	19.0 mV
O=C(O)[C@H](CCF)Oc1ccc(Br)cc1F [Compound A-85, (2S)-2-(4-bromo-2-fluorophenoxy)-4-fluorobutanoic acid]	12.5 mV
O=C(O)[C@H](CCF)Oc1ccc(Br)cc1 [Compound A-87, (2S)-2-(4-bromophenoxy)-4-fluorobutanoic acid]	16.4 mV
O=C(O)[C@@H](Oc1ccc(Br)cc1F)C1CC1 [Compound A-89, (2S)-2-(4-bromo-2-fluorophenoxy)-2-cyclopropylacetic acid]	10.3 mV
C[C@@H](F)[C@H](Oc1ccc(Br)cc1F)C(=O)O [Compound A-95, (2R,3R)-2-(4-bromo-2-fluorophenoxy)-3-fluorobutanoic acid]	10.3 mV
